From patent publication US10281476B2, “Methods to identify modulators of RyR calcium channels” (REGENTS OF THE UNIVERSITY OF MINNESOTA, priority 2013, dated 2019)
Where no end group is shown, it is not given here.

Assays:
[1] = system: rat intact cardiomyocytes; assay: Ca2+ sparks and SR Ca2+ content in intact cardiomyocytes; type: cell-based; conditions: for Ca2+ spark Amplitude (ΔF/F0) / Ca2+ spark FDHM / Ca2+ spark FWHM: H2O2 50 μmol/L, dantrolene 1 μmol/L
Experimental: (§1) Intact cardiomyocytes were loaded with Fluo-4 AM (5 μmol/L, Molecular Probes) for 15 min in NT solution (in mM): NaCl 140, KCl 4, MgCl2 1, CaCl2 2, glucose 10, HEPES 5, pH 7.4. Fluo-4 AM was excited at 488 nm and emission was recorded using a 500-530 nm bandpass filter. Ca^2+sparks were recorded after field stimulation at 1 Hz, and caffeine (10mmol/L) was rapidly perfused for assessing the SR Ca^2+content. Both Ca^2+sparks and SR Ca^2+content were recorded by using a laser scanning confocal microscope (RADIANCE2000™ MP, Bio-Rad, UK). Data were analyzed using SparkMaster, an automated analysis program that allows rapid and reliable spark analysis (Picht et al., J. Am J Physiol Cell Physiol. 2007;293:C1073-C1081). Spontaneous Ca^2+waves were recorded using a BZ9000 fluorescence digital microscope (Keyence, Japan), after 10 sec from field electric stimulation at 1,2,3,4 and 5 Hz, as described previously (Fukuda et al., Biochem Biophys Res Commun. 2014;448:1-7).
Oxidation induced by hydrogen peroxide (H2O2) is expected to activate SR Ca^2+ leak through RyR2 at diastolic [Ca]i (Wagner et al., Circ Res. 2011; 108:555-65; Yan et al., Cardiovasc Res. 2008; 77:432-41). We used line-scan images to measure the effects of 50 μM/L H2O2 on Ca^2+ spark frequency (CaSpF) and SR Ca^2+ content (evaluated via rapid caffeine application) in intact cardiomyocytes after 1 Hz electric field stimulation (FIG. 25). […] Thus H2O2 may enhance diastolic RyR2 channel opening. […] So CaSpF normalized to SR Ca^2+ content, was significant increase by H2O2 treatment of myocytes (FIG. 25C).

[2] = system: intact cardiac myocytes; assay: Spontaneous Ca2+ waves (SCW) in intact cardiac myocytes; type: cell-based, rat
Experimental: as §1

[3] = target: RyR2 (Rattus norvegicus, UniProt B0LPN4); assay: Fluorescent FKBP12.6 binding at the Z-line of permeabilized myocytes; design: These fluorescent proteins were added to saponin-permeabilized myocytes with or without pre-equilibration with saturating DPc10 concentration; endogenous in cells; host or cells: saponin-permeabilized rat ventricular myocytes
RyR2, sequence (B0LPN4 whole entry): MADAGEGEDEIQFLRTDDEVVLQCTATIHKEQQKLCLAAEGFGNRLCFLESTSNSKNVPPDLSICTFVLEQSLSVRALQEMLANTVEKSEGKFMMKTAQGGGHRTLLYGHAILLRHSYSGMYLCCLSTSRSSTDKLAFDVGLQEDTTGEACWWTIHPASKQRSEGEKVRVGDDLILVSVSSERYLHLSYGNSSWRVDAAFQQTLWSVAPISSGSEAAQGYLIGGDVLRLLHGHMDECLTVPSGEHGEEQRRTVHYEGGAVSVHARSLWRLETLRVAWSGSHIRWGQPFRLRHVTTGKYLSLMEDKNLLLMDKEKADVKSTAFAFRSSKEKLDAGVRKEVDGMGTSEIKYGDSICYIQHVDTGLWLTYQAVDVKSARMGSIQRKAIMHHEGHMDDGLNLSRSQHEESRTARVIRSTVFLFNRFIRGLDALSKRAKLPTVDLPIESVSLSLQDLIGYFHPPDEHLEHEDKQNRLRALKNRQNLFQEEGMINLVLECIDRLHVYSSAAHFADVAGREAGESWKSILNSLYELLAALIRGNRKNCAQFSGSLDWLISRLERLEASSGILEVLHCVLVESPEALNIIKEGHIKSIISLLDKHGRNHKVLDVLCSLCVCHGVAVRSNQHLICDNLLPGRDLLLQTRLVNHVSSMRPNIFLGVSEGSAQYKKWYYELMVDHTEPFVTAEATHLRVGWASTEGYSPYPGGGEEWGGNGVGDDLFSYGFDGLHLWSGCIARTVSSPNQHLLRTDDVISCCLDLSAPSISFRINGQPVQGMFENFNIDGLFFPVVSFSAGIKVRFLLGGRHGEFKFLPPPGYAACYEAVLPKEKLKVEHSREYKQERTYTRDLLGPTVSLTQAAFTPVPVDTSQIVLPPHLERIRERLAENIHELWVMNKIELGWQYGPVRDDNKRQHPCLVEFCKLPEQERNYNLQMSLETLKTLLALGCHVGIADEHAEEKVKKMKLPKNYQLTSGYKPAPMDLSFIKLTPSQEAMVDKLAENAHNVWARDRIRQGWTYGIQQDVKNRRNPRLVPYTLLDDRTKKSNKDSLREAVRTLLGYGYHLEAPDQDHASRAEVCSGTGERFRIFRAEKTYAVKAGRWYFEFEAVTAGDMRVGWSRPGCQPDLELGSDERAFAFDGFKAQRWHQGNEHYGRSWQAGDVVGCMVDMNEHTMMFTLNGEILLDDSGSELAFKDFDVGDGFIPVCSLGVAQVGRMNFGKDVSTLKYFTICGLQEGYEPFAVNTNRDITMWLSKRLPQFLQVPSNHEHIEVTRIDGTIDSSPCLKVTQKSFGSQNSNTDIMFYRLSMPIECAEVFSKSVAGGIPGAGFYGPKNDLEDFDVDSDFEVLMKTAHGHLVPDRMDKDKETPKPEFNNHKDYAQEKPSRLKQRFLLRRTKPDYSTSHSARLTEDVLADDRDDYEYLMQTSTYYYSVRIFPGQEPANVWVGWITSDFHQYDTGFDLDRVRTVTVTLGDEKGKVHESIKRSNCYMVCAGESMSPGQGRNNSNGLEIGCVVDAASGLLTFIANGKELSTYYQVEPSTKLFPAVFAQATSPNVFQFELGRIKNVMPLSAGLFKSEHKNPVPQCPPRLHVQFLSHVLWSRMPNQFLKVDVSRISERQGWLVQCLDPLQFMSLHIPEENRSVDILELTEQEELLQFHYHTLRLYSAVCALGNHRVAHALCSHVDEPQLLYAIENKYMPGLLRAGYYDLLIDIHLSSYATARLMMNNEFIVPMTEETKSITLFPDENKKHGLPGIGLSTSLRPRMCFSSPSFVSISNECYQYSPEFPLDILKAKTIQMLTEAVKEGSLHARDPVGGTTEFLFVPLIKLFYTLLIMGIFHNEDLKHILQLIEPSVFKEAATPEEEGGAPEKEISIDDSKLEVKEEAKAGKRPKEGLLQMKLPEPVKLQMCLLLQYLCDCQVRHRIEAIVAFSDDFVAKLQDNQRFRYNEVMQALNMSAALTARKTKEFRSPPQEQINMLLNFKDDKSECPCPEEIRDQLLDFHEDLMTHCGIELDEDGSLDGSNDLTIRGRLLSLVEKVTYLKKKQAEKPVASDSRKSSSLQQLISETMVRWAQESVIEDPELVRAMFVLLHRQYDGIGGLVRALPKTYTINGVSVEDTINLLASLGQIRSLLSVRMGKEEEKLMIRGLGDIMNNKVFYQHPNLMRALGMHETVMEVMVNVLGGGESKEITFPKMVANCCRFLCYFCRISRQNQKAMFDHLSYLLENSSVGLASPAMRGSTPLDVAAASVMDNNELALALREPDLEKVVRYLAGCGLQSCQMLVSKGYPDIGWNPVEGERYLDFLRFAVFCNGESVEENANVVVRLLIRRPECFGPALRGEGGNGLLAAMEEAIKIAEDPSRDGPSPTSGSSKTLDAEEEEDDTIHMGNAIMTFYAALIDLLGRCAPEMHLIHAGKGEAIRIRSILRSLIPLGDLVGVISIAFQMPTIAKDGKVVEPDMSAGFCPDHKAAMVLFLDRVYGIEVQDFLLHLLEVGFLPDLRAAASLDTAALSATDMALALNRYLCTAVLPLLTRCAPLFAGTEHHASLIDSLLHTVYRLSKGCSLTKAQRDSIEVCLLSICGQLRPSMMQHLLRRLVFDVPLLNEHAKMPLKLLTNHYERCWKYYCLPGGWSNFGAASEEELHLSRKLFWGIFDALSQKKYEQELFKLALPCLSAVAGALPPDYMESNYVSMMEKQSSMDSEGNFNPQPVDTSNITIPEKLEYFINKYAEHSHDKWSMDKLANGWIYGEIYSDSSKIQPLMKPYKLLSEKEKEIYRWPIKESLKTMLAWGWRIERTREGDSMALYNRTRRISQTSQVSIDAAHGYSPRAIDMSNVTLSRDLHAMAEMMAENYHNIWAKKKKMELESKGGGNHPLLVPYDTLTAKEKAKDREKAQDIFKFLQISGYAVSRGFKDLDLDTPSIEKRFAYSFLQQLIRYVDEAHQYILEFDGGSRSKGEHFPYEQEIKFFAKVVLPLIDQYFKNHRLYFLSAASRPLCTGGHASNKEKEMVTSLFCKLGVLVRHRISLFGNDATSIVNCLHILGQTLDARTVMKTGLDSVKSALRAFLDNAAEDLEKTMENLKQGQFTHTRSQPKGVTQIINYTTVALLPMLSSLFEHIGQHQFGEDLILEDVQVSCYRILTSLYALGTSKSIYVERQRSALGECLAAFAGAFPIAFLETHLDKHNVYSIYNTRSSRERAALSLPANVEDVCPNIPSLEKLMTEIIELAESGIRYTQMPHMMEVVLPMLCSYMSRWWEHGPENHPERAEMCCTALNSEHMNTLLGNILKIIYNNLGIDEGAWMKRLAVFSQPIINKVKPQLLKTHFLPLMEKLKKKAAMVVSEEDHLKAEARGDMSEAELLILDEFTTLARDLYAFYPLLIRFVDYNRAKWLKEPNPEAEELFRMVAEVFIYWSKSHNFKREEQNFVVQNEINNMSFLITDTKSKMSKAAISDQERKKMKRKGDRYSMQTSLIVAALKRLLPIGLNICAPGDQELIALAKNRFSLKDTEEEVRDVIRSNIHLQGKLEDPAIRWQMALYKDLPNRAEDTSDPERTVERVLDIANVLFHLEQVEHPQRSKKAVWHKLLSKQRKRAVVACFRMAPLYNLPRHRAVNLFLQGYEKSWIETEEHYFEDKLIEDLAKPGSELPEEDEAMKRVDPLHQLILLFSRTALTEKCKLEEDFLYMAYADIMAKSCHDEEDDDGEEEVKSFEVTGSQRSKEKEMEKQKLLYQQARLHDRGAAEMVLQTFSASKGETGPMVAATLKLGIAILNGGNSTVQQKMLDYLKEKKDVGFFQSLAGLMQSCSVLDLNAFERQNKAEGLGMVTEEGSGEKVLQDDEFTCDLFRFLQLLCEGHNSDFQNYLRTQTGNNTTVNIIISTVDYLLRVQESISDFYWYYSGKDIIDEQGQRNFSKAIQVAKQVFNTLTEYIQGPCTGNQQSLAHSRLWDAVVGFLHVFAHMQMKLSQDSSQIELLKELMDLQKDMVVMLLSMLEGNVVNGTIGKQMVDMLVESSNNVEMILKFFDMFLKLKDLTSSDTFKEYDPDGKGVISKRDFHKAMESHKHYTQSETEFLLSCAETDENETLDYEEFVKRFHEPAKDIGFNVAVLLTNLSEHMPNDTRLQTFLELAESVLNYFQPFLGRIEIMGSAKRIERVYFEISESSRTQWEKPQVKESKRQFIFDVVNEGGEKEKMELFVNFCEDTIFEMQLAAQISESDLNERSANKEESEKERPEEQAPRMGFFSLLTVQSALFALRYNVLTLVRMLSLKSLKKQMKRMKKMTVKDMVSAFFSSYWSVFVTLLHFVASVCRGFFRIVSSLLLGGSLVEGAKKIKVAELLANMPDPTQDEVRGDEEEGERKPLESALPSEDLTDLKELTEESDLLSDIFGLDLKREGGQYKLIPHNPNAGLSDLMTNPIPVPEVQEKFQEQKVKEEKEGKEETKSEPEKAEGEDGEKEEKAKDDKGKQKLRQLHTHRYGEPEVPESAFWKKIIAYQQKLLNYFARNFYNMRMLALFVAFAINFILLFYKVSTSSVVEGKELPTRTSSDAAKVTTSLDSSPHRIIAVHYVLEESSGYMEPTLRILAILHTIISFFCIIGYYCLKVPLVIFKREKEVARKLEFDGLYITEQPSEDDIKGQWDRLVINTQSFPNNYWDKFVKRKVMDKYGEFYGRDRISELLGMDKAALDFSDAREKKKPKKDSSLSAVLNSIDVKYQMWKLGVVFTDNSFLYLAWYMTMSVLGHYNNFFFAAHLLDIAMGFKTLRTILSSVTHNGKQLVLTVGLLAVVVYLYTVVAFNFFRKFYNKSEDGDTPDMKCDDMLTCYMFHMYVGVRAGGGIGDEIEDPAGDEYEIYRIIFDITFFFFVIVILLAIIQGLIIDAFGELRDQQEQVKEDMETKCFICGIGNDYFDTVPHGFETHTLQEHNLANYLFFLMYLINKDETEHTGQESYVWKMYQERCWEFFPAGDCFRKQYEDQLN
RyR2, sequence (P68106 with tags, fused parts or gaps T15C/C23A/C77I partner): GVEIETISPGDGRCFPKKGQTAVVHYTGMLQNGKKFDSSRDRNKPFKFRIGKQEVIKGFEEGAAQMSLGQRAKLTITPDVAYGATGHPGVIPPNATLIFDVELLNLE
Experimental: These fluorescent proteins were added to saponin-permeabilized myocytes with or without pre-equilibration with saturating DPc10 concentration. […] We also did this with high [CaM] (500 nmol/L) that saturates RyR2 with CaM under control conditions (without DPc10; FIG. 17C). […] To test whether DPc10 and CaM bind at the same or nearby RyR2 sites, we measured FRET between CaM and DPc10.
FKBP12.6 can bind to and stabilize RyR2 channel gating, but details are controversial (Bers et al., Circ Res. 2012; 110:796-799). We measured the effect of H2O2 on FKBP12.6-RyR2 binding affinity in saponin-permeabilized myocytes using F-FKBP (Yang et al., Circ Res. 2014; 114:295-306; Cornea et al., Proc Natl Acad Sci USA. 2009; 106:6128-6133; Guo et al., Circ Res. 2010; 106:1743-1752; Guo et al., Biophys J. 2011; 101:2170-2177; Cornea et al., J Biol Chem. 2010; 285:19219-19226). […] We used 1 nmol/L F-FKBP (the its Kd) (Guo et al., Circ Res. 2010; 106:1743-1752), because at half-saturation it would be very sensitive to either an increase or decrease in RyR2 binding.

[4] = system: permeabilized cardiomyocytes; assay: Ca2+ sparks and SR Ca2+ content in permeabilized myocytes; type: cell-based, rat
Experimental: Myocytes were permeabilized with saponin (50μg/mL) for 60 seconds and placed in internal solution composed of EGTA 0.5 mmol/L; HEPES 10 mmol/L; Kaspartate 120 mmol/L; ATP 5 mmol/L; free MgCl2 1 mmol/L, reduced glutathione 10 mmol/L; and free [Ca2+] 50nmol/L (calculated using MaxChelator), creatine phosphokinase 5 U/mL, phosphocreatine 10 mmol/L, dextran 4% Fluo-4 0.025 mmol/L, pH 7.2. Ca2+sparks were recorded by a laser scanning confocal microscope (RADIANCE2000™ MP, Bio-Rad, UK) as previously described (Li et al., Circ Res, 2002; 90:309-316). Fluo-4 was excited at 488 nm and emission was recorded using 500/530 nm bandpass filter. To assess SR Ca2+content, caffeine (15 mmol/L) was rapidly perfused. Ca2+spark were analyzed as using SparkMaster (Picht et al., Am J Physiol Cell Physiol, 2007; 293:C1073-C1081).
Next, we asked whether RyR2 is activated by DPc10 and whether FKBP12.6 or CaM can prevent this. We assessed Ca^2+ sparks in permeabilized myocytes perfused with internal solution containing 50 nmol/L free Ca^2+ plus 1 μmol/L autocamtide-2-related inhibitory peptide (to inhibit CaMKII activity). Line-scan images were recorded after 3-hour incubations under control conditions and in the presence of 5 μmol/L DPc10, with or without 1 μmol/L CaM or 100 nmol/L FKBP12.6 (FIG. 14D).

[5] = DPc10 5 μmol/L, FKBP12.6 100 nmol/L, CaM 1 μmol/L

| Molecule | Ca2+ spark Amplitude (ΔF/F0) [1] | Ca2+ spark FDHM [1] [ms] | Ca2+ spark FWHM [1] [μm] | effect on H2O2-induced increase in frequency of Ca2+ sparks ([1]; dantrolene added before H2O2) | effect on control myocytes (Ca2+ sparks and SCW) ([1]; no H2O2) | effect on H2O2-induced increase in frequency of SCW ([2]; dantrolene added before H2O2) | CaSpF compared with control ([1]; 50 μM/L H2O2, after 1 Hz stimulation) | SR Ca2+ content ([1]; intact myocytes) | occurrence of SCW vs. control ([2]; pacing rate increased from 1 to 5 Hz) | effect on F-FKBP binding to the RyR2 ([3]; 1 nmol/L F-FKBP, H2O2 50 μmol/L, with or without AIP or dantrolene) | Ca2+ spark frequency (CaSpF) vs control ([4]; 5 μmol/L DPc10, 3-hour incubation, 50 nmol/L free Ca2+, 1 μmol/L AIP) | Ca2+ spark FDHM [4, 5] [ms] | Ca2+ spark FWHM [4, 5] [μm] | Ca2+ spark Peak (F/F0) [4, 5] [F/F0] | SR Ca2+ content vs control (caffeine-induced Ca2+ release) ([4]; permeabilized myocytes) | effect on FKBP12.6 binding to RyR2 ([3]; AF488-FKBP12.6 1 nmol/L, preincubation with 5 μmol/L DPc10) |
| --- | --- | --- | --- | --- | --- | --- | --- | --- | --- | --- | --- | --- | --- | --- | --- | --- |
| O=C1CN(/N=C/c2ccc(-c3ccc([N+](=O)[O-])cc3)o2)C(O)=N1 [dantrolene] | 0.55 ± 0.01 ΔF/F0 | 61.98 ± 3.35 | 1.93 ± 0.09 | suppressed | had no effect | suppressed |  |  |  |  |  |  |  |  |  |  |
| OO [H2O2, hydrogen peroxide] | 0.57 ± 0.01 ΔF/F0 | 67.05 ± 3.25 | 2.04 ± 0.07 |  |  |  | significantly increased | did not significantly alter | significantly increased | failed to alter |  |  |  |  |  |  |
| GFCPDHKAAMVLFLDRVYGIEVQDFLLHLLEVGFLP [DPc10] |  |  |  |  |  |  |  |  |  |  | robustly increased | 58.5 ± 1.00 | 1.34 ± 0.01 | 0.475 ± 0.004 | significantly lower | does not influence |
